Test results from patent publication US9114177B2, “Block copolymer having phenylboronic acid group introduced therein, and use thereof” (THE UNIVERSITY OF TOKYO, priority 2011, dated 2015).

Tests used:
[1] = cited from earlier work
[2] = Blood retention properties of complex; type: in vivo; conditions: mice, tail vein, 20 μg siRNA
Protocol: The block copolymer (PEG-PLL 12-23/43) and Cy5-GL3-siRNA were added to a 10 mM HEPES buffer (pH 7.3) so as to achieve an N/P ratio of 8 and an siRNA concentration of 7.5 μM, and the resultant was mixed and left to stand still for about 1 to 2 hours at room temperature to prepare a complex solution. The complex solution or a solution of the siRNA (10 mM HEPES buffer) was administered to the tail veins of mice (female Balb/C nude, 6-week-old, N=4) so that the dose was 20 μg of the siRNA, and the amount of the siRNA remaining in blood was determined over time.

[3] = siRNA diffusion time of block copolymer/siRNA complexes in serum solution (complex stability); type: physicochemical; conditions: siRNA not mixed with block copolymer, 50 nM, serum solution (10% FBS)
Protocol: A variety of block copolymers having different amino acid polymerization degrees and FPBA group contents were prepared as mentioned in Sections (1-i) to (1-iii) and (2-i) to (2-iii). It should be noted that PEG having a molecular weight (Mw) of 12,000 was used as methoxy-PEG-NH2. The block copolymers were mixed with siRNA fluorescently labeled with Cy3 so as to achieve an N/P ratio of 8. The resultant mixtures were left to stand still in a refrigerator for 1 to 2 hours and diluted with a serum solution (150 mM NaCl, 10 mM Hepes, 10% FBS) so as to achieve an siRNA concentration of 50 nM. The resultant diluted solutions were left to stand still at room temperature for about 1 hour, and the siRNA diffusion time was measured with a confocal laser scanning microscope (manufactured by Carl Zeiss, product name “LSM510”) (10 sec×10 times). It should be noted that, when the measurement was carried out in the same manner as above except that siRNA was not mixed with the block copolymer, the diffusion time (diffusion time of siRNA alone) was 157.5 μsec. It should be noted that GL3-siRNA was used as the siRNA.

Row | Molecule | pKa [1] | siRNA remaining in blood at 10 minutes after administration [2] | siRNA remaining in blood at 1 hour after administration [2] | diffusion time of siRNA alone [3] [μsec]
1 | OB(O)c1ccccc1 [phenylboronic acid] | 8 to 9 |  |  | 
2 | GL3-siRNA: siRNA for firefly luciferase, SEQ ID NO: 5 and 6, fluorescently labelled (Cy3 or Cy5), tested alone (chain 1 CUUACGCUGACUACUUCGAUU; chain 2 UCGAAGUACUCAGCGUAAGUU; sense strand 5' end labeled with Cy3 (or Cy5), further chemistry not given here) |  | about 10% | almost no siRNA remained | 157.5
